In patent US4309362A, “Process for the optical resolution of DL-p-hydroxy-phenylglycine” (Tanabe Seiyaku Co., Ltd., priority 1976, dated 1982):
≈ marks a conversion by molar mass, not a printed value.

Key:
physchem [1] = format: physicochemical; conditions: water
Procedure: DL-, D- or L-p-hydroxyphenylglycine sulfosalicylate is prepared in the same manner as described in Example 1.
p-hydroxyphenyl- Specific Solubility (g/100
Melting rotation ml of water)

[2] = Solubility of p-hydroxyphenylglycine o-toluenesulfonate in water (Table 3); format: physicochemical
[3] = Solubility of p-hydroxyphenylglycine p-ethylbenzenesulfonate in aqueous 3 M p-ethylbenzenesulfonic acid (Table 2); format: physicochemical; conditions: aqueous 3 M p-ethylbenzenesulfonic acid solution
Description: *an aqueous 3 M pethylbenzenesulfonate acid solution

physchem [4] = conditions: 0.5 m benzenesulfonic acid, organic solvent or mixture, aqueous 0.5 M benzenesulfonic acid solution

In the case of `N[C@@H](C(=O)O)c1ccc(O)cc1` (single isomer, unassigned; enantiomer d) [p-hydroxyphenylglycine sulfosalicylate monohydrate, D-enantiomer, D-p-hydroxyphenylglycine sulfosalicylate], the solubility (physchem [1]) is reported as 14.0 g/100 ml of water and the solubility (physchem [1]; Solubility) is reported as 100 mg/mL.

Work on `NC(C(=O)O)c1ccc(O)cc1` (racemic) [DL-p-hydroxyphenylglycine o-toluenesulfonate] yielded a solubility ([2]; 20° C.) of 123 mg/mL (≈ 736 mM), a solubility ([2]; 30° C.) of 160 mg/mL (≈ 957 mM) and a solubility ([2]; 40° C.) of 210 mg/mL (≈ 1260 mM).

With `N[C@H](C(=O)O)c1ccc(O)cc1` [p-hydroxyphenylglycine p-ethylbenzenesulfonate, L-enantiomer, L-p-hydroxyphenylglycine p-ethylbenzenesulfonate] the solubility ([3]; 20° C.) was 10.3 g/100 ml of solvent, the solubility ([3]; 30° C.) was 14.2 g/100 ml of solvent and the solubility ([3]; 40° C.) was 21.8 g/100 ml of solvent.

With `N[C@H](C(=O)O)c1ccc(O)cc1` [p-hydroxyphenylglycine o-toluenesulfonate, L-enantiomer, L-p-hydroxyphenylglycine o-toluenesulfonate] the solubility ([2]; 20° C.) was 77 mg/mL (≈ 461 mM), the solubility ([2]; 30° C.) was 96 mg/mL (≈ 574 mM) and the solubility ([2]; 40° C.) was 122 mg/mL (≈ 730 mM).

For `NC(C(=O)O)c1ccc(O)cc1` (racemic) [DL-p-hydroxyphenylglycine sulfosalicylate], the solubility (physchem [1]) was 26.3 g/100 ml of water and the solubility (physchem [1]; Solubility) was 182 mg/mL (≈ 1090 mM).

For `N[C@@H](C(=O)O)c1ccc(O)cc1.O=S(=O)(O)c1ccccc1` [p-hydroxyphenylglycine benzenesulfonate, D-enantiomer, D-p-hydroxyphenylglycine benzenesulfonate], the solubility (physchem [4]; 20° C.) was 77 mg/mL, the solubility (physchem [4]; 30° C.) was 110 mg/mL and the solubility (physchem [4]; 40° C.) was 167 mg/mL.

With `NC(C(=O)O)c1ccc(O)cc1` (racemic) [DL-p-hydroxyphenylglycine p-ethylbenzenesulfonate] the solubility ([3]; 20° C.) was 19.3 g/100 ml of solvent, the solubility ([3]; 30° C.) was 33.2 g/100 ml of solvent and the solubility ([3]; 40° C.) was 52.1 g/100 ml of solvent.

In the case of `N[C@@H](C(=O)O)c1ccc(O)cc1` (single isomer, unassigned; enantiomer d) [p-hydroxyphenylglycine p-ethylbenzenesulfonate, D-enantiomer, D-p-hydroxyphenylglycine p-ethylbenzenesulfonate], the solubility ([3]; 20° C.) is reported as 10.3 g/100 ml of solvent, the solubility ([3]; 30° C.) is reported as 14.2 g/100 ml of solvent and the solubility ([3]; 40° C.) is reported as 21.8 g/100 ml of solvent.

For `N[C@H](C(=O)O)c1ccc(O)cc1` [p-hydroxyphenylglycine sulfosalicylate monohydrate, L-enantiomer, L-p-hydroxyphenylglycine sulfosalicylate], the solubility (physchem [1]) was 14.0 g/100 ml of water and the solubility (physchem [1]; Solubility) was 100 mg/mL.

`NC(C(=O)O)c1ccc(O)cc1.O=S(=O)(O)c1ccccc1` (racemic) [DL-p-hydroxyphenylglycine benzenesulfonate] showed a solubility (physchem [4]; 20° C.) of 154 mg/mL, a solubility (physchem [4]; 30° C.) of 241 mg/mL and a solubility (physchem [4]; 40° C.) of 350 mg/mL.

In the case of `N[C@H](C(=O)O)c1ccc(O)cc1.O=S(=O)(O)c1ccccc1` [p-hydroxyphenylglycine benzenesulfonate, L-enantiomer, L-p-hydroxyphenylglycine benzenesulfonate], the solubility (physchem [4]; 20° C.) is reported as 77 mg/mL, the solubility (physchem [4]; 30° C.) is reported as 110 mg/mL and the solubility (physchem [4]; 40° C.) is reported as 167 mg/mL.

For `N[C@@H](C(=O)O)c1ccc(O)cc1` [p-hydroxyphenylglycine o-toluenesulfonate, D-enantiomer, D-p-hydroxyphenylglycine o-toluenesulfonate], the solubility ([2]; 20° C.) was 77 mg/mL (≈ 461 mM), the solubility ([2]; 30° C.) was 96 mg/mL (≈ 574 mM) and the solubility ([2]; 40° C.) was 122 mg/mL (≈ 730 mM).
